Experimental data from patent publication US20110077237A1, “KINASE INHIBITORS” (VERTEX PHARMACEUTICALS INCORPORATED, priority 2007, published 2011).

What was measured:
Format in all cases: biochemical
PKC theta = PKC theta (Homo sapiens, UniProt Q04759); assay: PKC Theta I coupled-enzyme (NADH absorbance) kinase assay; conditions: 18 nM PKC theta, 240 μM ATP, 30° C., absorbance at 340 nm
Experimental: (§1) An assay buffer solution was prepared which consisted of 100 mM HEPES (pH 7.5), 10 mM MgCl2, 25 mM NaCl, 0.1 mM EDTA and 0.01% Brij. […] To 60 μL of this enzyme buffer, in a 384 well plate, was added 2 μL of VRT stock solution in DMSO. The mixture was allowed to equilibrate for 10 mins at 30° C. […] Ki values were calculated from initial rate data by non-linear regression using the Prism software package (Prism 4.0a, Graphpad Software, San Diego, Calif.).

PKC delta kinase = PKC delta kinase (Homo sapiens, UniProt Q05655); assay: PKC Delta coupled-enzyme kinase assay; conditions: 46 nM PKC delta, 150 μM ATP, 30° C.; read-out: Ki PKC delta
Sequence of PKC delta kinase (Q05655 whole entry): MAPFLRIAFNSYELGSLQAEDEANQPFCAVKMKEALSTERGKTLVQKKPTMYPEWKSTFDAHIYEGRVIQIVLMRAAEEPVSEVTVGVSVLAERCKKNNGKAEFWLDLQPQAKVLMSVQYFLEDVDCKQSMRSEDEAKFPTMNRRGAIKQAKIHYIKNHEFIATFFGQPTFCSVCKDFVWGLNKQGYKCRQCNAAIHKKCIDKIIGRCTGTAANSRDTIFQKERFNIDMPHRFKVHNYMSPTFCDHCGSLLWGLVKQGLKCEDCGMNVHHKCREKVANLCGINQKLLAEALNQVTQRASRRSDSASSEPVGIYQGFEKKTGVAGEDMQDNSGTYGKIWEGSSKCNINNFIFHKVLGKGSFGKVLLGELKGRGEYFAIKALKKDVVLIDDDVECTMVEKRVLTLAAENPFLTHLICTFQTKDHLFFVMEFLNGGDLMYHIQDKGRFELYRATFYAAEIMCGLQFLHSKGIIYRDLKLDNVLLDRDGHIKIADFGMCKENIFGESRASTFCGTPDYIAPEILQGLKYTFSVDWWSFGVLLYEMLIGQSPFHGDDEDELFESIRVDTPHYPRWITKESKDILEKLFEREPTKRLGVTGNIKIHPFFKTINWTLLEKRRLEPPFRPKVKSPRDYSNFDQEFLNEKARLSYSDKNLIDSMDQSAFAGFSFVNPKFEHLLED
Experimental: as §1, with “To 16” for “To 60”, “added 1” for “added 2”

PKC alpha kinase = PKC alpha kinase (Homo sapiens, UniProt P17252); assay: PKC Alpha coupled-enzyme kinase assay; conditions: 4.5 nM PKC alpha, 130 μM ATP, 30° C.
Experimental: An assay buffer solution was prepared which consisted of 100 mM HEPES (pH 7.5), 10 mM MgCl2, 25 mM NaCl, 0.1 mM EDTA, 100 μM CaCl2 and 0.01% Brij. […] To 16 μL of this enzyme buffer, in a 384 well plate, was added 1 μL of VRT stock solution in DMSO. The mixture was allowed to equilibrate for 10 mins at 30° C. The enzyme reaction was initiated by the addition of 16 μL stock ATP solution prepared in assay buffer to a final assay concentration of 130 μM. Initial rate data was determined from the rate of change of absorbance at 340 nm (corresponding to stoichiometric consumption of NADH) using a Molecular Devices Spectramax plate reader (Sunnyvale, Calif.) over 15 mins at 30° C. For each Ki determination 12 data points covering the VRT concentration range of 0-20 μM were obtained in duplicate (DMSO stocks were prepared from an initial 10 mM VRT stock with subsequent 1:2 serial dilutions). Ki values were calculated from initial rate data by non-linear regression using the Prism software package (Prism 4.0a, Graphpad Software, San Diego, Calif.).

Sequence of PKC theta (Q04759 whole entry): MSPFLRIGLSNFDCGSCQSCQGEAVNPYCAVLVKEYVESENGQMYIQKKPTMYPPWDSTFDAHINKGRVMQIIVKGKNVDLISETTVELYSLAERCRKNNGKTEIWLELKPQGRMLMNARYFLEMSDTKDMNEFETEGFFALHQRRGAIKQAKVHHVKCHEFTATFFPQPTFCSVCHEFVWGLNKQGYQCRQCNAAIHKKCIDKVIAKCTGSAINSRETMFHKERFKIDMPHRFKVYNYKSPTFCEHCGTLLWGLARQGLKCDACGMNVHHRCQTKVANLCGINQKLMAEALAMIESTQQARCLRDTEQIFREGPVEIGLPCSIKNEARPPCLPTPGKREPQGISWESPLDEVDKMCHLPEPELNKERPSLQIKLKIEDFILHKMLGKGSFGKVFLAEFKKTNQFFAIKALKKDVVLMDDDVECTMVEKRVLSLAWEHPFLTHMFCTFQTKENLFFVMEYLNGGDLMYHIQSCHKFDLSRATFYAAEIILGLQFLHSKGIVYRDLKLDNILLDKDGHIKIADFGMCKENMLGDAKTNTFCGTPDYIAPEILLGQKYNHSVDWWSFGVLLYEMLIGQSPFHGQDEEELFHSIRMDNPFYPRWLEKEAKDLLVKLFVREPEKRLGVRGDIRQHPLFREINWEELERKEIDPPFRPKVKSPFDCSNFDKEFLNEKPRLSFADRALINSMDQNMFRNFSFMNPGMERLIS

Ki (PKC theta) [nM]	Ki (PKC delta kinase) [nM]	Ki (PKC alpha kinase) [nM]	SMILES
500 to 2800	500 to 2800		COC(=O)N1CCCN(c2cccc(C(=O)c3cccnc3N)n2)CC1 [compound 9]
500 to 2800			Nc1ncccc1C(=O)c1cccc(N2CCCN(C(=O)Oc3ccccc3Cl)CC2)n1 [compound 15]
500 to 2800	> 2800		CC(C)(O)C(=O)N1CCCN(c2cccc(C(=O)c3cccnc3N)n2)CC1 [compound 19]
500 to 2800	> 2800		Nc1ncccc1C(=O)c1cccc(N2CCCN(C(=O)c3ccccc3)CC2)n1 [compound 32]
500 to 2800			Nc1ncccc1C(=O)c1cccc(N2CCCN(C(=O)C3CC3)CC2)n1 [compound 36]
500 to 2800			Nc1ncccc1C(=O)c1cccc(N2CCCN(C(=O)C3CCCCC3)CC2)n1 [compound 38]
500 to 2800	> 2800		Nc1ncccc1C(=O)c1cccc(N2CCCN(C(=O)CC3CCCCC3)CC2)n1 [compound 39]
500 to 2800	> 2800		CC(C)(C)C(O)C(=O)N1CCCN(c2cccc(C(=O)c3cccnc3N)n2)CC1 (stereo not drawn) [compound 41]
500 to 2800			CC(C)N(Cc1ccccc1)C(=O)c1ccc(C(=O)c2cccnc2N)s1 [compound 48]
500 to 2800			Nc1ncccc1C(=O)c1cccc(N2CCCN(C(=O)Oc3ccccc3)CC2)n1 [compound 52]
500 to 2800			C=Cc1cnc(N)c(C(=O)c2cccc(N3CCCN(C(=O)OC(C)(C)C)CC3)n2)c1 [compound 60]
500 to 2800			COC(=O)N1CCCN(c2cccc(C(=O)c3cc(Br)cnc3N)n2)CC1 [compound 69]
500 to 2800			Nc1ncc(Br)cc1C(=O)c1cc(N2CCCNCC2)cs1 [compound 83]
500 to 2800			Nc1ncccc1C(=O)c1cc(N2CCCNCC2)cs1 [compound 84]
500 to 2800			Nc1ncccc1C(=O)c1cccc(N2CCC(N)C2)n1 (stereo not drawn) [compound 85]
500 to 2800			Nc1ncccc1C(=O)c1nc(N2CCCN(C(=O)CC(F)(F)F)CC2)cs1 [compound 95]
500 to 2800			N#CCCN1CCN(c2cccc(C(=O)c3cc(Br)cnc3N)n2)CC1 [compound 96]
500 to 2800			Nc1ncc(Br)cc1C(=O)c1cccc(N2CCN(CCO)CC2)n1 [compound 97]
500 to 2800			CN(Cc1ccccc1)C(=O)c1ccc(C(=O)c2cccnc2N)s1 [compound 103]
500 to 2800			Nc1ncccc1C(=O)c1ccnc(N2CCCNCC2)n1 [compound 111]
500 to 2800			NC(=O)C1CCCN(c2cccc(C(=O)c3cc(Br)cnc3N)n2)C1 (stereo not drawn) [compound 122]
500 to 2800			Nc1ncc(Br)cc1C(=O)c1cccc(N2CC[C@H](O)C2)n1 [compound 123]
500 to 2800			CN(CC(O)c1ccccc1)c1cccc(C(=O)c2cc(Br)cnc2N)n1 (stereo not drawn) [compound 124]

Ki (PKC theta) [nM]	Ki (PKC delta kinase) [nM]	Ki (PKC alpha kinase) [nM]	SMILES
500 to 2800			Nc1ncccc1C(=O)c1csc(N2CCCNCC2)n1 [compound 125]
500 to 2800			Nc1ncccc1C(=O)c1cccc(N2CCC(NC(=O)CC(F)(F)F)CC2)n1 [compound 129]
500 to 2800			Nc1ncc(Br)cc1C(=O)c1cccc(NCCN2CCCCC2)n1 [compound 141]
500 to 2800			CCN(Cc1ccccc1)c1cccc(C(=O)c2cc(Br)cnc2N)n1 [compound 142]
500 to 2800			CN(C)CCN(Cc1ccccc1)c1cccc(C(=O)c2cc(Br)cnc2N)n1 [compound 143]
500 to 2800			Nc1ncc(Br)cc1C(=O)c1cccc(N2CCN(C3CCCC3)CC2)n1 [compound 144]
500 to 2800			Nc1ncc(Br)cc1C(=O)c1cccc(N2CCCC(c3ccccc3)C2)n1 (stereo not drawn) [compound 145]
500 to 2800			CC(C)(O)C#Cc1cnc(N)c(C(=O)c2cccc(N3CCCNCC3)n2)c1 [compound 147]
500 to 2800			Nc1ncccc1C(=O)c1cccc(N2CCC(NC3CC3)CC2)n1 [compound 148]
500 to 2800			CNC1CCN(c2cccc(C(=O)c3cccnc3N)n2)CC1 [compound 159]
500 to 2800			Nc1ncccc1C(=O)c1cccc(N2CCCN(Cc3ccccc3)CC2)n1 [compound 160]
500 to 2800			Nc1ncc(-c2cc3ccccc3[nH]2)cc1C(=O)c1cccc(N2CCCNCC2)n1 [compound 168]
500 to 2800			Nc1ncc(Br)cc1C(=O)c1cccc(NC[C@H]2CCCC[C@@H]2O)n1 [compound 174]
500 to 2800			Nc1ncc(Br)cc1C(=O)c1cccc(NCCCN2CCCC2)n1 [compound 177]
500 to 2800	500 to 2800	500 to 2800	Nc1ncccc1C(=O)c1ccn(C2CCNCC2)n1 [compound 184]
500 to 2800			Nc1ncc(C2=CCCCC2)cc1C(=O)c1cccc(N2CCCNCC2)n1 [compound 185]
500 to 2800			Cc1cc(C(=O)c2cccnc2N)nc(N2CCCNCC2)c1 [compound 189]
500 to 2800			Nc1ncc(NCc2ccccc2)cc1C(=O)c1cccc(N2CCCNCC2)n1 [compound 190]
500 to 2800			Nc1ncc(Br)cc1C(=O)c1cccc(N2CCNC(=O)C2)n1 [compound 196]
500 to 2800	500 to 2800	500 to 2800	Nc1ncccc1C(=O)c1ccn(C2CCCNCC2)n1 (stereo not drawn) [compound 203]
500 to 2800			Cc1cn(C2CCCNCC2)nc1C(=O)c1cccnc1N (stereo not drawn) [compound 212]
500 to 2800			Nc1ncccc1C(=O)c1cccc(N2CCN[C@@H](Cc3ccccc3)C2)n1 [compound 215]
500 to 2800			CN1CCN(c2cccc(C(=O)c3cccnc3N)n2)CC1 [compound 216]

Ki (PKC theta) [nM]	Ki (PKC delta kinase) [nM]	Ki (PKC alpha kinase) [nM]	SMILES
500 to 2800	500 to 2800	> 2800	Cc1cc(C(=O)c2cccnc2N)nn1C1CCCNCC1 (stereo not drawn) [compound 217]
500 to 2800		500 to 2800	CNc1cnc(N)c(C(=O)c2cccc(N3CCCNCC3)n2)c1 [compound 220]
500 to 2800			Nc1ncccc1C(=O)c1cccc(N2CCN(C(=O)CC(F)(F)F)CC2)n1 [compound 224]
500 to 2800			Cc1ccc(C(=O)c2cccnc2N)nc1N1CCCNCC1 [compound 229]
500 to 2800			C[C@@H]1CNC[C@H](C)N1c1cccc(C(=O)c2cccnc2N)n1 [compound 234]
500 to 2800			Cc1ccc(C(=O)c2cccnc2N)nc1N1CCNCC1 [compound 236]
500 to 2800			Nc1ncccc1C(=O)c1ccc(Cl)c(N2CCCNCC2)n1 [compound 242]
500 to 2800			Nc1ncccc1C(=O)c1cccc(N2CCN[C@H](Cc3ccccc3)C2)n1 [compound 250]
500 to 2800			Nc1ncccc1C(=O)c1cccc(C2CCNCC2)n1 [compound 257]
500 to 2800			Nc1ncc(-c2ccccc2O)cc1C(=O)c1cccc(N2CCNC(c3ccccc3)C2)n1 (stereo not drawn) [compound 259]
500 to 2800			Nc1ncc(-c2cccnc2)cc1C(=O)c1cccc(N2CCNC(c3ccccc3)C2)n1 (stereo not drawn) [compound 275]
500 to 2800			Nc1ncc(-c2ccccc2CO)cc1C(=O)c1cccc(N2CCNC(c3ccccc3)C2)n1 (stereo not drawn) [compound 281]
500 to 2800	500 to 2800	> 2800	Nc1ncccc1C(=O)c1cccc(N2CCNC(Cc3cnc[nH]3)C2)n1 (stereo not drawn) [compound 304]
500 to 2800	> 2800	500 to 2800	Cc1cccc(C)c1C1CN(c2cccc(C(=O)c3cccnc3N)n2)CCN1 (stereo not drawn) [compound 337]
500 to 2800	500 to 2800	500 to 2800	CC(C)(N)CNc1ccc(C(F)(F)F)c(C(=O)c2cccnc2N)n1 [compound 368]
500 to 2800	500 to 2800	500 to 2800	Nc1ncccc1C(=O)c1nc(N2CCC(N)C2)ccc1C(F)(F)F (stereo not drawn) [compound 369]
500 to 2800	500 to 2800	500 to 2800	CC(C)[C@H](CN)Nc1ccc(C(F)(F)F)c(C(=O)c2cccnc2N)n1 [compound 370]
500 to 2800	500 to 2800	500 to 2800	CNCCNc1ccc(C(F)(F)F)c(C(=O)c2cccnc2N)n1 [compound 373]
500 to 2800	500 to 2800	500 to 2800	NCCCCNc1ccc(C(F)(F)F)c(C(=O)c2cccnc2N)n1 [compound 374]
	500 to 2800	500 to 2800	CC(C)[C@H](N)COc1ccc(C(F)(F)F)c(C(=O)c2cccnc2N)n1 [compound 400]
	50 to 500	500 to 2800	CC(C)C[C@H]1CN(c2ccc(CC(F)F)c(C(=O)c3cccnc3N)n2)CCN1 [compound 401]

SMILES	Ki (PKC theta) [nM]	Ki (PKC delta kinase) [nM]	Ki (PKC alpha kinase) [nM]
Nc1ncccc1C(=O)c1cc(N2CCNCC2)ncc1F [compound 319]	500 to 2800		
Nc1ncccc1C(=O)c1nc(N2CCNCC2)ccc1C1CC1 [compound 354]	500 to 2800	500 to 2800	> 2800
